Reference: patent US6630310B1, “Assay for binding between carbohydrate and glycolipid” (Biopolymer Engineering Pharmaceutical, Inc., priority 1996, dated 2003)

Key:
[1] = Competition of ^3H-PGG-Glucan binding to GalCer II
Description: Lactosyl ceramide or the sample to be measured was suspended in ethanol. Aliquots as specified were added in triplicate to the wells of a 96-well plate and air dried. The following components were premixed, then 100 μL was added to each well: saline (10 μL) or unlabelled, underivatized, aqueous soluble β(1-3)-glucan (10 μL of a 10 mg/ml stock), ^3H-underivatized, aqueous soluble β(1-3) glucan (10 μL of a 10 μg/ml stock), and HBSS (80 μL). Plates were incubated at 37° C. for 1.5 to 2 hours, then supernatants were removed from each well and discarded. Wells were rinsed with HBSS (200 μL) and SOLVABLE™ (100 μL) was added. The plate was incubated at 60° C. for 5 minutes, then supernatants were removed and counted.

[2] = Competition of ^3H-PGG-Glucan binding to lactosyl ceramide in 96-well plate assay (FIGS. 14, 15); parameters: species or system bovine; conditions: FIGS. 14 and 15
Source text: (§1) FIG. 14 is a graph of the comparison of underivatized, aqueous soluble β(1-3)-glucan and single helix competition of ^3H-underivatized, aqueous soluble β(1-3)-glucan binding in three assay formats. Underivatized, aqueous soluble β(1-3)-glucan or single helix glucan was used at designated concentrations to compete for ^3H-underivatized, aqueous soluble β(1-3)-glucan binding to lactosyl ceramide (LacCer) in a 96-well plate (triangles), or to lactosyl ceramide in reconstituted membranes (squares), or to human leukocyte membranes (circles). Open symbols represent underivatized, aqueous soluble β(1-3) glucan, and closed symbols represent single helix. Maximum competition was assigned at the highest concentration of underivatized, aqueous soluble β(1-3)-glucan used as competitor in each type of assay.
FIG. 15 is a graphic illustration of data showing that underivatized, aqueous soluble β(1-3) glucan and high molecular weight underivatized, aqueous soluble β(1-3) glucan (Network) compete more effectively for ^3H-underivatized, aqueous soluble β(1-3)-glucan binding to lactosyl ceramide in a 96-well plate assay than do single helix or laminarin. […]
Lactosyl ceramide or the sample to be measured was suspended in ethanol. […] The plate was incubated at 60° C. for 5 minutes, then supernatants were removed and counted.

[3] = Competition of ^3H-PGG-Glucan binding to lactosyl ceramide in reconstituted membranes (FIG. 14)
Source text: as §1
Membranes were prepared from the receptor-negative cell line, U937, and extracted with chloroform/methanol as described above. The upper and lower layers were combined after removal of the proteinaceous interphase and dried under a stream of argon with the sample to be assayed for binding (lactosyl ceramide or fractions from the purification). […]
The dried lipid/sample preparations were resuspended in HBSS (500 μL) by brief sonication, and centrifuged for 10 minutes at 12,000×g. […] Pellets were then dissolved in SOLVABLE™, scintillation fluid was added, and radioactivity was measured.

NF-κB = experiment: EMSA of NF-κB activation in BMC2.3 cells; assay type: cell-based, murine; conditions: 3 μg/ml, various times at 37° C. (FIG. 4)
Description: In order to assess the activation of signal transduction as exemplified by the modulation of one or more transcriptional regulatory factors by underivatized, aqueous soluble β(1-3)-glucan, BMC2.3 cells were incubated with 3 μg/ml underivatized, aqueous soluble β(1-3)-glucan for various periods of time at 37° C. Nuclear extracts were prepared and incubated with ^32P-labeled DNA oligonucleotides specific for NF-κB or NF-IL6. The protein-^32P DNA complexes were separated from unbound ^32P DNA by gel electrophoresis (electrophoretic mobility shift assay, EMSA).
BMC2.3 cells in DMEM plus 10% fetal calf serum were incubated with 3 μg/ml underivatized, aqueous soluble β(1-3)-glucan for various lengths of time. Nuclear extracts were prepared by the method of Dignam et al. (Nuc. Acid Res. 11:1475-1489 (1983)). Nuclear extracts were then incubated with ^32P-labeled DNA oligonucleotide for twenty minutes at room temperature. The sequence of the oligonucleotide used as the probe was […] (SEQ ID NO: 1). The reaction mixture was then separated on a 4% polyacrylamide gel and the results recorded autoradiographically.

NF-IL6 = experiment: EMSA of NF-IL6 activation in human neutrophils; assay type: cell-based; conditions: 3 μg/ml, 60 minutes at 37° C., relative to control or dextran (FIG. 16B)
Description: Purified human neutrophils were incubated with or without underivatized, aqueous soluble β(1-3)-glucan (3 μg/ml) or dextran (3 μg/ml) for 60 minutes at 37° C. Nuclear extracts were prepared and protein/DNA complex formation assessed by electrophoretic mobility shift assay (EMSA). As shown in FIGS. 16A and 16B, underivatized, aqueous soluble β(1-3)-glucan increased the binding of nuclear extract proteins to an NF-kB or NF-IL6 specific 32P-labeled oligonucleotide probe relative to extracts from either control or dextran-treated neutrophils.
Human neutrophils (4.5×10^6 cells/ml; 10 ml total) purified as described above were incubated in RPMI+10% FCS (Sigma Chemical Co.) for 30 minutes at 37° C. Underivatized, aqueous soluble β(1-3)-glucan or dextran (both at 3 μg/ml) were then added and incubation continued an additional 60 minutes at 37° C. Nothing was added to control cells. At the end of the incubation, cells were washed in ice cold PBS+20 mM EDTA and nuclear extracts prepared and EMSAs performed as described above.

% Control Binding ([1]; ligand 0.01 mg hexose/mL): 23.6% | % Control Binding ([1]; ligand 0.1 mg hexose/mL): 3.0% | % Control Binding ([1]; ligand 1.0 mg hexose/mL): 1.4% | competition for ^3H-underivatized, aqueous soluble β(1-3)-glucan binding to LacCer in the 96-well plate assay (in words) [2]: competes | competition for ^3H-underivatized, aqueous soluble β(1-3)-glucan binding to LacCer in the reconstitution assay (in words) [3]: competes
Substance: underivatized, aqueous soluble β(1-3)-glucan [PGG-Glucan]
NF-κB protein-^32P DNA complex formation (EMSA, in words) (NF-κB): time dependent increase in protein-DNA complexes | binding of nuclear extract proteins to NF-IL6 specific 32P-labeled probe (EMSA, in words) (NF-IL6): increased
